The text below walks through data of patent EP2949319A1, “PHARMACEUTICAL COMPOSITIONS COMPRISING AN ACTIVE AGENT” (Galenicum Health S.L., priority 2014, dated 2015).

≈ marks a conversion by molar mass, not a printed value.

Series [1] is described as follows: Dissolution of the active agent in the capsule fill (glycerol monocaprylocaprate, BHT). The series is classed as physicochemical. As to conditions: glycerol monocaprylocaprate and BHT, 20-23 °C, stirred. The source says:
Another advantage of the process as herein disclosed is that it is highly reproducible and robust independently of the water content of the active agent. […] However, when the active agent has a water content higher than 0.05% measured by Karl Fischer titration, the components of the fill are completely dissolved at the same range of temperatures. Furthermore, the inventors have been able to establish an optimum range of working temperatures able to obtain a fill solution completely dissolved homogeneously with active agents with a water content higher than 0.05 % w/w.
• Glycerol monocaprylocaprate was added to a stainless steel tank equipped with cooling jacket to keep it at a temperature of 20-23 °C. It was stirred until completely dissolved. • Butylhydroxytoluene (BHT) was added to the tank and stirred until completely dissolved. • Finally dutasteride anhydrous was added to the tank. • The resulting solution was kept at a range of temperature of 20-23 °C. […] Water content of the active agent and the range of temperatures were studied to avoid dissolution problems.

For series [2] the following is noted: cited from earlier work.

With `C[C@]12C=CC(=O)N[C@@H]1CC[C@@H]1[C@@H]2CC[C@]2(C)[C@@H](C(=O)Nc3cc(C(F)(F)F)ccc3C(F)(F)F)CC[C@@H]12` [dutasteride anhydrous, 17-beta-N-[2,5-bis(trifluoromethyl)]phenylcarbamoyl-4-aza-5-alpha-androst-1-en-3-one], the “dissolution in the capsule fill solution” value in series [1] was “not possible to obtain a completely dissolved solution”. Take `C[C@]12C=CC(=O)N[C@@H]1CC[C@@H]1[C@@H]2CC[C@]2(C)[C@@H](C(=O)Nc3cc(C(F)(F)F)ccc3C(F)(F)F)CC[C@@H]12` [Dutasteride, 17-beta-N-[2,5-bis(trifluoromethyl)]phenylcarbamoyl-4-aza-5-alpha-androst-1-en-3-one]: the solubility in water in series [2] is 0.38 ng/mL (≈ 0.719 nM).
